Laboratory results: patent publication US20230295213A1, “CD73 INHIBITORS AND PHARMACEUTICAL USES THEREOF” (RISEN (SUZHOU) PHARMA TECH CO., LTD., priority 2018, published 2023)
Where two headings read alike, the source gives them in different places.

Experiments:
CD73 = CD73 (Homo sapiens (Human), UniProt P21589); assay: CD73 cellular assay (T cell stimulation assay); assay type: cell-based; conditions: human T cells, anti-CD3/CD28 stimulated, AMP + EHNA, 72 hours
Method: Procedures for T cell stimulation assay were the following: Day 1, coating the plate: diluting anti-CD3 to 1 μg/mL with sterile PBS; coating 96 well flat bottom tissue culture plates (Corning #3599) with 50 uL of diluted anti-CD3, centrifuging (1000 rpm) for 1 min; sealing the plate and incubating the plate at 4° C. overnight for antibody crosslinking.
Day 2, human T cell seeding: (a) washing the coated plate (from Day 1) with sterilized PBS buffer (2×100 uL); (b) re-suspending T cells and adjusting cell density to 0.5×10^6 cells/mL with growth media (X-VIVO 15+1% Pen/strep+1% glutamine), and seeding 100 μL/well (50,000 cells/well) in 96-well plates; (c) diluting CD28 antibody for 8x working concentration (8 μg/mL) with growth media, giving 1 μg/mL of the final concentration, followed by addition of CD28 antibody (25 μL) to cell plate; incubating the plates under 5% CO2 at 37° C. for 60 min; (d) adding compound (25 μL, 8x dilution with growth media) to cell plate, and incubating the plates under 5% CO2 at 37° C. for 60 min; (e) adding AMP (25 μL) and EHNA (25 μL, 8x dilution with growth media) to cell plate; (f) incubating the plates under 5% CO2 at 37° C. for 72 hours.
Day 5, collecting cell growth media and testing cell proliferation: (a) centrifuging the cell plate (1,000 rpm) for 5 min; (b) harvesting 150 μL of the cell culture media from each well to 96 well plate, followed by measurement of IFN-r expression by ELISA test; (c) taking a portion of the cell culture supernatant for cytokine analysis, removing the remaining supernatant, followed by addition of fresh growth media (X-VIVO 15+1% Pen/strep+1% glutamine, 100 μL); (d) adding Celltiter-Glo solution (50 μL) into each well for the measurement of cell proliferation by: (e) incubating the plates at room temperature for 10 min on a shaker; (f) transferring 100 μL solution into 96-well white plate and taking the readout of the Celltiter-Glo data using a TECAN Reader.

[1] = target: Recombinant human 5′-nucleotidase (hCD73) (Homo sapiens (Human), UniProt P21589); assay: CD73 enzyme inhibition assay (hCD73, AMP substrate, PiColorLock Gold phosphate detection); assay type: biochemical; conditions: hCD73 1 nM solution, AMP 60 μM solution, 37° C. 20 min, absorbance 635 nm
Recombinant human 5′-nucleotidase (hCD73), sequence (P21589 27-574): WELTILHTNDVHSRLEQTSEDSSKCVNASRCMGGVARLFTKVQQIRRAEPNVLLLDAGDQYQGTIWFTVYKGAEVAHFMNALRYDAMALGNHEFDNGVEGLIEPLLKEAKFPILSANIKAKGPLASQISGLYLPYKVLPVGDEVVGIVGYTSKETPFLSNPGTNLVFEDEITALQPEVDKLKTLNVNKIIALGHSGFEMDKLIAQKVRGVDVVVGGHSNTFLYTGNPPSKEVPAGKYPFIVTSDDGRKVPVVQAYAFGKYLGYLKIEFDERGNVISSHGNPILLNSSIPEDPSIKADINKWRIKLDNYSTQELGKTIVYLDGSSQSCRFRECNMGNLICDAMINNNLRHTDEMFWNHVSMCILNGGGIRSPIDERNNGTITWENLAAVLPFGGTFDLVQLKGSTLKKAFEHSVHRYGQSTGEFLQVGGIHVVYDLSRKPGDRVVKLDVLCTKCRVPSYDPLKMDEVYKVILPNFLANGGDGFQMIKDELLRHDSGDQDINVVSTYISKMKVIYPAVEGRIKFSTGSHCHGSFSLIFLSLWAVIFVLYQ
Method: Test compound solution preparation: Stock solution of a test compound was prepared in DMSO at 10 mM concentration. A series of preset 10-concentration solutions of a test compound were prepared by diluting the stock solution in 5-fold gradient dilution with DMSO.
Assay buffer (lx): 20 mm Tris, 25 mM NaCl, 1 mM MgCl2, pH 7.5, 0.005% Tween-20 (freshly prepared, and ready for use).
An aliquot of 0.25 μL of compound solution or DMSO (blank control) was added to each test well of a micro well plate. Recombinant human 5′-nucleotidase (hCD73) was diluted to 1 nM in assay buffer; and an aliquot of 25 μL hCD73 (1 nM) solution was added to the corresponding wells of the plate. The contents of the well were well-mixed, and the plate was covered with sealing film, centrifuged at 1000 rpm for 30 sec., followed by incubation at room temperature for 15 min. AMP, the substrate, was diluted to 60 μM concentration in the assay buffer. To each reaction well was added 25 μL of AMP solution. After mixing well, the plate was covered with sealing film, centrifuged at 1000 rpm for 30 sec., and incubated at 37° C. for 20 min. The absorbance signal (end point) was measured on SPARK plate reader at 635 nm (See PiColorLock™ Gold Phosphate Detection System (Abcam) test kit for reference).
The reaction wells containing CD73 enzyme, substrate AMP and DMSO (no compound) were used as positive control, and the reaction wells containing substrate AMP and DMSO but no CD73 enzyme were used as negative control. The percent (%) inhibition at each concentration of compound was calculated based on and relative to the signal in the High and Low control wells contained within each assay plate. The High control wells were considered as 0% inhibition, and the low control wells, which didn't contain any compound but rather DMSO (final concentration=0.5%), as 100% inhibition. IC50 values were obtained using GraphPad Prism software.

[2] = Pharmacokinetic evaluation in ICR mice, intravenous; assay type: in vivo; conditions: mouse; ICR male mice, 1.0 mg/kg intravenous, plasma
Method: A test compound (1.0 mg/kg) was administered to fasted ICR male mice via intravenous injection, and blood samples were collected at time points of 0.08, 0.25, 0.5, 1, 2, 4, 6, 8 and 24 h after the administration. Plasma sample was separated by centrifugation (8000 rpm) and stored at −80° C. until the sample was analyzed. Concentrations of the test compound in the plasma were determined by HPLC-MS/MS: the plasma was dispensed into appropriate tubes containing internal standard and methanol or acetonitrile. The tubes were mixed vigorously for 3 minutes to achieve deproteinization and then centrifuged at 8000 rpm for 5 minutes. The supernatant was transferred to an autosampler vial, injected into the chromatographic system, and quantified on MS/MS detector. Pharmacokinetic parameters including AUC0-t, Cmax, Tmax, t1/2, MRT, Cl and Vd were calculated using WinNonlin 6.3 software. Table 3 summarizes key PK parameters for test compounds (AUC(0-t): the area under the curve from time 0 to time t; AUC(0-∞): the area under the curve from time 0 to infinity; t1/2: Half-life; CL: clearance; C0: the concentration of drug in blood if the drug molecules enter the circulation and are distributed immediately (i.e., at time 0)).

[3] = read-out: EC50, CTG (CellTiter-Glo, cell proliferation)
[4] = read-out: EC50, IFN-γ (ELISA, indicator for T-cell activity)

CD73, sequence (P21589 27-574): as above

Compound: O=P(O)(O)CP(=O)(O)OC[C@H]1O[C@@H](n2cnc3c(N4CCC5(CCCCC5)C4)nc(Cl)nc32)C(O)C1O (stereo partly drawn) [Compound b, reference compound]
- EC50 (CD73; [3]): 7.53 nM
- EC50 (CD73; [4]): 14.2 nM

Compound: O=P(O)(O)CP(=O)(O)OC[C@H]1O[C@@H](n2cnc3c(N4CC5(CCc6ccccc65)C4)nc(Cl)nc32)C(O)C1O (stereo partly drawn) [d-1]
- EC50 (CD73; [3]): 3.13 nM
- EC50 (CD73; [4]): 1.45 nM

Compound: O=P(O)(O)CP(=O)(O)OC[C@H]1O[C@@H](n2cnc3c(N4CCC5(CC4)Cc4ccccc4C5)nc(Cl)nc32)[C@@H](O)C1O (stereo partly drawn) [d-21]
- IC50 [1]: 1.42 nM
- AUC(0-inf) [2]: 7450 ng·h/mL
- AUC(0-t) [2]: 7430 ng·h/mL
- Cmax [2]: 12200 ng/mL
- half-life [2]: 53.9 min

Compound: O=P(O)(O)CP(=O)(O)OC[C@H]1O[C@@H](n2cnc3c(N4CCC(c5ccccc5)(c5ccccc5)C4)nc(Cl)nc32)C(O)C1O (stereo partly drawn) [d-33]
- IC50 [1]: 1.76 nM
- EC50 (CD73; [3]): 4.07 nM
- EC50 (CD73; [4]): 2.53 nM
